This is an account of results in patent US20260191962A1, “NOVEL CHLORIN E6 ANALOGUES” (RMW CHO Group Limited, priority 2022, published 2026).

The test system of data set [1] is SKOV3 ovarian cancer cells. The data set is described as follows: Phototoxicity of chlorin e6 analogues in SKOV3 cells after 652 nm laser activation (AlamarBlue viability). Conditions: for IC90: 24 h uptake, 652 nm laser 50 mW/cm^2 for 5 mins (15 J/cm^2), viability 24 h later; for Phototoxicity in vitro compared with compounds 1, 2 and 8: comparison in words. Format: cell-based, Human. Here is the method:
Samples were stored at 4° C. protected from light.
All data are shown as mean±SD (where appropriate).
To test for phototoxicity, cells incubated with chlorin e6 analogues (0-10 μM in DMSO) had culture media replaced after 24 hours (as above) and were then exposed to a 652 nm laser (Invion) with laser density at 50 mW/cm^2 for 5 mins (total 15 J/cm^2). Following activation, cells were cultured for a further 24 hours. Media was then replaced with fresh media containing AlamarBlue, and % viable cells remaining assessed as above. Controls included cells treated with chlorin e6 analogues but not activated by laser light; cells without chlorin e6 analogue treatment but with laser light; and untreated controls. All measurements were made in quadruplicate.
To evaluate the therapeutic potential of chlorin e6 analogues, the therapeutic index (TI) was calculated. TI provides a quantitative measurement to describe relative drug safety, by comparing the drug concentration required for desirable effects versus the concentration resulting in undesirable off-target toxicity. TI was calculated using phototoxicity IC90 vs dark toxicity IC10.
(The colour change of resazurin is a common sign of viable cells or microbes.)

The subject of data set [2] is SKOV3 ovarian cancer cells. The data set can be described thus: Inherent cytotoxicity (dark toxicity) in SKOV3 cells (AlamarBlue viability). Conditions: 24 h incubation, no light activation.
Experimental: (§1) Photosensitizers (e.g. chlorin e6 analogue, chlorin e4 disodium (provided by Advanced Molecular Technologies, Scoresby) or Talaporfin sodium (purchased from Focus Bioscience cat #HY-16477-5MG)) were resuspended in 100% dimethylsulfoxide (DMSO) at a concentration of 5.5 mM. Samples were stored at 4° C. protected from light.
(§2) For in vitro experiments, photosensitizers (stock solution 5.5 mM in 100% DMSO) were diluted 1:100 in concentrated excipient solution (final 55 M photosensitizer in 10% w/v Kollidon-12, 42.4% w/v polysorbate 80, 0.6% w/v citric acid anhydrous, 40% w/v ethanol, 1.0% DMSO). Serial dilutions were prepared in cell culture media (Dulbecco's Modified Eagle Medium/Nutrient Mixture F-12 (DMEM/F-12)) supplemented with 10% v/v Fetal Bovine Serum, 100 U/mL penicillin, 100 μg/mL streptomycin and the same excipient solution at a constant 1:55 dilution.
(§3) Human ovarian cancer cell line SKOV3 (ATCC #HTB-77) was maintained in Dulbecco's Modified Eagle Medium/Nutrient Mixture F-12 (DMEM/F-12), supplemented with 10% v/v Fetal Bovine Serum, 100 U/mL penicillin and 100 g/mL streptomycin. Monolayer cultures were grown in a humidified incubator at 37° C. with 5% CO2. Once cells had reached ~80% confluence, spent media was replaced with media containing photosensitizer at the required concentration and cells were incubated for the desired period of time to allow photosensitizer uptake.
(§4) Spectral absorbance and viability measurements were normalized in the range 0-100%, with a minimum of 0 and a maximum value determined from the dataset. Dose response was determined using a sigmoidal four-point non-linear regression with variable slope, and IC10 or IC90 calculated for each compound. All data are shown as mean±SD (where appropriate).
(§5) SKOV3 cells were seeded in 96-well black wall plates (Greiner #655090) at a cell density of 5000 cells in 100 μl culture medium per well. On reaching 60% confluence, media was aspirated and replaced with fresh media containing the relevant chlorin e6 analogue from 0-100 μM in DMSO. Cells were incubated for a further 24 hours, allowing uptake of chlorin e6 analogues.
(§6) To test for inherent cytotoxicity (i.e. “dark toxicity”) of the chlorin e6 analogues, the culture media was replaced after 24 hours with fresh media containing 10% (v/v) AlamarBlue Cell Viability Reagent (ThermoFisher) and cells incubated at 37° C. for 6 hours. Untreated cells were used as a control. Fluorescence (Ex 555 nm/Em 596 nm) was measured using a Cytation 3 Cell Imaging Multi-Mode Reader (Biotek), and cytotoxicity assessed according to the % viable cells remaining. All measurements were made in quadruplicate.
(§7) The phototoxicity and inherent cytotoxicity (i.e. “dark toxicity”) of chlorin e6 analogues were assessed as previously using SKOV3 ovarian cancer cells.
The subject of data set [3] is SKOV3 ovarian cancer cells. Conditions: human, 24 h.
Experimental: as §1, §2, §3, §4, §5, §6, §7
A short description of data set [4]: Stability of chlorin e6 analogue salts in aqueous solution (HPLC purity over time). The class given is physicochemical. Particulars: 30° C.; for Stability: aqueous solution, overall rating in words. Here is the method:
Reaction solutions were prepared by dissolving 2-3 mg of the respective chlorin e6 analogue salt in 5 mL of distilled deionised water in a 50 mL test tube fitted with a lid. The solutions were stirred in the test tubes at 30° C. Air (oxygen) and ambient light so were not excluded. Sample HPLC analyses were performed at 0.5, 4 or 66 hours (unless indicated otherwise). The aim was to look for degradation over time.
• Mobile Phase: A=0.05% w/v phosphoric acid in distilled water; B=acetonitrile • Injection volume: 5 μL • HPLC run length: 35 minutes • Detection wavelength: 406 nm • Column temperature: 40° C.

Where [5] appears, read: Homo sapiens, SK-OV-3, light or radiation study.
[6] abbreviates: distilled deionised water, air and ambient light not excluded.
Setting [7] is: distilled deionised water, air and ambient light not excluded, Disodium Salt.

Molecules are shown by their SMILES. Where a name gives a salt, the structure may show the parent alone. Read-outs that look alike come from different tables or passages of the source.

The term IC90 denotes the concentration at which the effect reaches the 90% level. A high value points to weaker potency. Consider `C=Cc1c(C)c2cc3nc(c(C)c4[nH]c(cc5nc(cc1[nH]2)C(C)=C5CC)c(C)c4C(=O)O)[C@@H](CCC(=O)O)[C@@H]3C` [Chlorin e4 disodium, reference compound], for which, in data set [1], the concentration for an effect of 90% (IC90) was determined as 21.3 µM; the “Phototoxicity in vitro compared with compounds 1, 2 and 8” value was “substantially lower phototoxicity”. For the same molecule, the “Dark toxicity μM (IC10)” value in data set [2] stood at 40.23 µM.

With `C=Cc1c(C)c2cc3nc(c(CC(=O)O)c4[nH]c(cc5nc(cc1[nH]2)C(C)=C5CC)c(C)c4C(=O)NCCCS[C@@H]1O[C@H](CO)[C@@H](O)[C@H](O)[C@H]1O)[C@@H](CCC(=O)NCCCS[C@@H]1O[C@H](CO)[C@@H](O)[C@H](O)[C@H]1O)[C@@H]3C` [Compound 1, chlorin e6 bis β-D-1-thioglucose propylamide conjugate 1], the “Dark toxicity μM (IC10)” value in data set [3] came to 168.10 µM. The same molecule returned a concentration for an effect of 90% (IC90) in data set [1] (setting [5]) of 6.48 µM.

Take `C=Cc1c(C)c2cc3nc(c(CC(=O)NCCCS[C@@H]4O[C@H](CO)[C@@H](O)[C@H](O)[C@H]4O)c4[nH]c(cc5nc(cc1[nH]2)C(C)=C5CC)c(C)c4C(=O)NCCCS[C@@H]1O[C@H](CO)[C@@H](O)[C@H](O)[C@H]1O)[C@@H](CCC(=O)NCCCS[C@@H]1O[C@H](CO)[C@@H](O)[C@H](O)[C@H]1O)[C@@H]3C` [Compound 2, chlorin e6 tris β-D-1-thioglucose propylamide conjugate 2]: the “Dark toxicity μM (IC10)” value in data set [3] is 167.50 µM. Further, the IC90 in data set [1] (setting [5]) worked out at 7.89 µM.

As to `C=Cc1c(C)c2cc3nc(c(CC(=O)N(C)CCC[P+](c4ccccc4)(c4ccccc4)c4ccccc4)c4[nH]c(cc5nc(cc1[nH]2)C(C)=C5CC)c(C)c4C(=O)OC)[C@@H](CCC(=O)OC)[C@@H]3C` [Compound 8, Chlorin e6 N-(methylaminopropyl)triphenylphosphonium Bromide Dimethyl Ester], the “Dark toxicity μM (IC10)” value in data set [3] worked out at 1.032 µM. In data set [1] (setting [5]), the IC90 turned out to be 0.00418 µM.

`C=Cc1c(C)c2cc3nc(c(CC(=O)N(C)CCCC)c4[nH]c(cc5nc(cc1[nH]2)C(C)=C5CC)c(C)c4C(=O)O)[C@@H](CCC(=O)O)[C@@H]3C` [Compound 11, Chlorin e6 N-methylbutylamine bis(N-methyl-D-glucamine) Salt]: in data set [4], the Stability result is “Good”. Besides, in data set [4] (setting [6]), the “Purity by HPLC after 0.5 hours (%)” value is on record as 94.15% and the “Purity by HPLC after 4 hours (%)” value is recorded as 93.94%. In addition, in data set [4] (distilled deionised water, air and ambient light not excluded, after 7 days), the “Purity by HPLC (%) after 7 days” value is on record as 93.93 (after %.

In the case of `C=Cc1c(C)c2cc3nc(c(CC(=O)O)c4[nH]c(cc5nc(cc1[nH]2)C(C)=C5CC)c(C)c4C(=O)OC)[C@@H](CCC(=O)O)[C@@H]3C` [Compound 12, Chlorin e6 5-methyl Ester Monosodium Mono(N-methyl-D-glucamine) Salt], the Stability result in data set [4] is “Poor”. Moreover, in data set [4] (setting [6]), the “Purity by HPLC after 0.5 hours (%)” value was found to be 83.73%, the “Purity by HPLC after 4 hours (%)” value came out at 81.10% and the “Purity by HPLC after 66 hours (%)” value was determined as 36.95%.

`C=Cc1c(C)c2cc3nc(c(CC(=O)O)c4[nH]c(cc5nc(cc1[nH]2)C(C)=C5CC)c(C)c4C(=O)OC)[C@@H](CCC(=O)O)[C@@H]3C` [Compound 13, Chlorin e6 5-methyl Ester Disodium Salt]: the Stability result in data set [4] was “Poor”. Also, in data set [4] (setting [7]), the “Purity by HPLC after 0.5 hours (%)” value came out at 85.46%, the “Purity by HPLC after 4 hours (%)” value is listed as 81.54% and the “Purity by HPLC after 66 hours (%)” value is reported as 41.60%.

In the case of `C=Cc1c(C)c2cc3nc(c(CC(=O)OCC)c4[nH]c(cc5nc(cc1[nH]2)C(C)=C5CC)c(C)c4C(=O)O)[C@@H](CCC(=O)O)[C@@H]3C` [Compound 16, Chlorin e6 15-ethyl Ester bis(N-methyl-D-glucamine) Salt], the Stability entry in data set [4] is on record as “Good”. In addition, the “Purity by HPLC after 66 hours (%)” value in data set [4] (setting [6]) was 95.34%.

In the case of `C=Cc1c(C)c2cc3nc(c(CC(=O)OCC)c4[nH]c(cc5nc(cc1[nH]2)C(C)=C5CC)c(C)c4C(=O)O)[C@@H](CCC(=O)O)[C@@H]3C` [Compound 17, Chlorin e6 15-ethyl Ester Disodium Salt], the “Purity by HPLC after 66 hours (%)” value in data set [4] (setting [7]) came out at 76.69%. In addition, the “Purity by HPLC (%) after 2 hours” value in data set [4] (distilled deionised water, air and ambient light not excluded, after 2 hours) was 77.60 (after %.

In the case of `C=Cc1c(C)c2cc3nc(c(CC(=O)O)c4[nH]c(cc5nc(cc1[nH]2)C(C)=C5CC)c(C)c4C(=O)OC)[C@@H](CCC(=O)O)[C@@H]3C` [Compound 20, Chlorin e6 5-methyl Ester bis(N-methyl-D-glucamine) Salt], in data set [4], the Stability result is recorded as “Poor”. Further, in data set [4] (setting [6]), the “Purity by HPLC after 0.5 hours (%)” value was determined as 81.39%, the “Purity by HPLC after 4 hours (%)” value stood at 81.28% and the “Purity by HPLC after 66 hours (%)” value is on record as 1.62%.

Take `C=Cc1c(C)c2cc3nc(c(CC(=O)O)c4[nH]c(cc5nc(cc1[nH]2)C(C)=C5CC)c(C)c4C(=O)O)[C@@H](CCC(=O)O)[C@@H]3C` [Photodithiazine, reference compound]: the Stability entry in data set [4] is listed as “Poor”. In addition, in data set [4] (setting [6]), the “Purity by HPLC after 0.5 hours (%)” value was found to be 88.56%, the “Purity by HPLC after 4 hours (%)” value was determined as 84.33% and the “Purity by HPLC after 66 hours (%)” value worked out at 40.27%.

On to `C=Cc1c(C)c2cc3nc(c(CC(=O)N[C@@H](CC(=O)O)C(=O)O)c4[nH]c(cc5nc(cc1[nH]2)C(C)=C5CC)c(C)c4C(=O)O)[C@@H](CCC(=O)O)[C@@H]3C` [Talaporfin sodium, reference compound], for which the “Phototoxicity in vitro compared with compounds 1, 2 and 8” value in data set [1] is “substantially lower phototoxicity”. For the same molecule, in data set [2], the “Dark toxicity μM (IC10)” value came to 11.10 µM.
